In US8604198B2, “Salt of proline derivative, solvate thereof, and production method thereof” (Mitsubishi Tanabe Pharma Corporation, priority 2005, dated 2013):

Tests used:
Format in all cases: physicochemical
[1] = Measurement of hygroscopicity (moisture adsorption measurement); settings: 25° C., reduced pressure type moisture adsorption measurement apparatus
Method: The hygroscopicity of the title compound of Example 3 was measured under the following conditions using a moisture adsorption measurement apparatus. • apparatus: MB-300G manufactured by VTI • measurement temperature: 25° C. • measurement range: 0-95% RH
The title compound of Example 3 was subjected to a moisture adsorption measurement using a reduced pressure type moisture adsorption measurement apparatus.

[2] = Measurement of solubility at pH 9-13 (HPLC)
Method: Using 0.2 mol/L NaOH/0.1 mol/L NaCl mixed solution as a test solution, the solubility of the title compound of Example 3 having a pH of 9-13 at room temperature was analyzed by liquid chromatography (HPLC) (n=3). […] From the foregoing, the solubility of the title compound of Example 3 was concluded to be about 7 mg/mL.

[3] = Measurement of solubility in water (visual observation); settings: 37° C., shaken 1 hr
Method: As a measurement method, visual observation was used, which permits convenient evaluation of rough solubility with a small amount of sample. The temperature during measurement was 37° C. About 3 mg of the title compound of Example 3 was taken in a sample bottle with a screw cap, a test solution (0.15 mL) was added and the cap was screwed tightly thereon. The sample was ultrasonicated for 1 min to give a dispersion, which was placed in a shaking-type thermostat water bath stabilized at 37° C. and shaken for 1 hr. Then, dissolution was confirmed by visual observation.

## Br.Br.Br.Br.Br.Cc1cc(N2CCN([C@@H]3CN[C@H](C(=O)N4CCSC4)C3)CC2)n(-c2ccccc2)n1.Cc1cc(N2CCN([C@@H]3CN[C@H](C(=O)N4CCSC4)C3)CC2)n(-c2ccccc2)n1 [Example 3, 3-{(2S,4S)-4-[4-(3-methyl-1-phenyl-1H-pyrazol-5-yl)piperazin-1-yl]pyrrolidin-2-ylcarbonyl}thiazolidine 2.5 hydrobromide]
[1]; 0% RH
  state of water content: almost completely dry
[1]; 50% RH
  water maintained, corresponding to hydrate: 1.8 hydrate
[2]; pH 8.81, 25° C.
  Solubility: 8.4 mg/mL
[2]; pH 9-13, room temperature, conclusion from the measured range
  solubility (concluded): about 7 mg/mL
[2]; pH 11.94, 25° C.
  Solubility: 7.2 mg/mL
[2]; pH 11.98, 25° C.
  Solubility: 7.9 mg/mL
[2]; pH 12.10, 25° C.
  Solubility: 7.2 mg/mL
[2]; pH 12.26, 25° C.
  Solubility: 7.8 mg/mL
[2]; pH 12.70, 25° C.
  Solubility: 6.4 mg/mL
[2]; pH 12.99, 25° C.
  Solubility: 6.8 mg/mL
[3]
  solubility in water: not less than 20 mg/mL
